Assay results from US20160272935A1, “Method of improving the yield of algae production” (RELIANCE INDUSTRIES LIMITED, priority 2013, published 2016).

How the values were obtained:
diatoms and algae = test: Similar trials with other urea cycle pathway inhibitors in mixed environment of diatoms and algae; conditions: no details given
diatoms [1] = test: Pond (natural habitat) trial with urea cycle pathway inhibitor, cellometer cell count: diatoms; set-up: species or system diatom; conditions: 25 mM added to pond
Description: (§1) Another experiment was carried out in a natural habitat i.e. a pond consisting of a mixed environment of algae and diatoms. At Day 1 using a cellometer technique the cell counts of algae and diatoms was carried out.
(§2) A urea cycle pathway inhibitor, namely Tris 25 mM was added to the pond.
(§3) Periodic cell count readings were carried out for a span of two months. The diatom and the algal cell count were then determined using the cellometer technique at the end of the 2 month span.

algae [2] = test: Pond (natural habitat) trial with urea cycle pathway inhibitor, cellometer cell count: algae; conditions: 25 mM added to pond, end of 2 month span; day 1 count 1000 cells/meter
Description: as §1, §2, §3

diatoms [3] = test: Mixed algae/diatom culture with urea cycle pathway inhibitor, cellometer cell count: diatoms; type: cell-based; conditions: 1 mM inhibitor
Description: (§4) A control was established containing equal quantities of algae and diatoms. Similarly a test was also established containing the same equal quantities of algae and diatoms along with 1 mM of urea cycle pathway inhibitor namely, Saccharopine.
(§5) At Day 1 using a cellometer technique the cell counts of algae and diatoms in both the control and the test was carried out.
(§6) Both the control and the test were then incubated for 4 days in similar optimum conditions with periodic checking for cell counts in both the control and the test vessels.
(§7) The diatom and the algal cell count was then determined using the cellometer technique at the end of 4th day.

algae [4] = test: Mixed algae/diatom culture with urea cycle pathway inhibitor, cellometer cell count: algae; type: cell-based; conditions: 1 mM inhibitor
Description: as §4, §5, §6, §7

Structure (SMILES): N [ammonia]
- Outcome of similar trials (diatom inhibition and algal growth) (diatoms and algae): equally successful results

Structure (SMILES): NCCCC[C@H](N)C(=O)O [lysine]
- Outcome of similar trials (diatom inhibition and algal growth) (diatoms and algae): equally successful results

Structure (SMILES): O=S(=O)(O)CCN1CCN(CCO)CC1 [hepes]
- Outcome of similar trials (diatom inhibition and algal growth) (diatoms and algae): equally successful results

Structure (SMILES): NC(CO)(CO)CO [Tris]
- Diatom cell count of the pond reduced, as compared to the cell count of diatoms on Day 1 (diatoms [1]; 2 months): 71%
- Cell count at Day 60 Diatom (diatoms [1]; end of 2 month span, day 1 count 2000 cells/meter): 580 cells/meter
- Cell count at Day 60 Algae (algae [2]): 5300 cells/meter
- Outcome of similar trials (diatom inhibition and algal growth) (diatoms and algae): equally successful results

Structure (SMILES): CCCCCCCCCCCCCCCC(=O)SCCNC(=O)CCNC(=O)[C@H](O)C(C)(C)COP(=O)(O)OP(=O)(O)OC[C@H]1O[C@@H](n2cnc3c(N)ncnc32)[C@H](O)[C@@H]1OP(=O)(O)O [palmitoyl CoA]
- Outcome of similar trials (diatom inhibition and algal growth) (diatoms and algae): equally successful results

Structure (SMILES): O=C([O-])c1ccccc1.[Na+] [sodium benzoate]
- Outcome of similar trials (diatom inhibition and algal growth) (diatoms and algae): equally successful results

Structure (SMILES): N[C@@H](CCCCN[C@@H](CCC(=O)O)C(=O)O)C(=O)O [Saccharopine]
- Day 4 (Cell Count) Inhibitor Diatom (diatoms [3]; after 4 days incubation, control 842, day 1 count 200): 62
- Diatom cell count reduction from day 1 (diatoms [3]; day 4): 69%
- Day 1 (Cell count) Inhibitor Diatom (diatoms [3]; initial count at day 1): 200
- Day 4 (Cell Count) Inhibitor Algae (algae [4]; after 4 days incubation, control 119, day 1 count 100): 450
- Day 1 (Cell count) Inhibitor Algae (algae [4]; initial count at day 1): 100
- Outcome of similar trials (diatom inhibition and algal growth) (diatoms and algae): equally successful results
